Converted amounts (≈) assume the structure as drawn.
How the values were obtained:
Format in all cases: cell-based
Mycoplasma gallisepticum = test: Antimicrobial test, conventional agar plate dilution method, Mycoplasma gallisepticum; settings: for MIC: Mycoplasmoides gallisepticum, read-out: Minimum Inhibitory Concentration, Mycoplasma gallisepticum
Description: (§1) ANTIMICROBIAL TEST AGAINST THREE STRAINS OF MYCOPLASMA
(§2) The test was effected by a conventional agar plate dilution method using the indicated strains of mycoplasma. The dithiocarbamic acid derivatives as shown below with Compound Nos. were employed in the test.

Mycoplasma pulmonis = test: Antimicrobial test, conventional agar plate dilution method, Mycoplasma pulmonis; settings: for MIC: Mycoplasma, read-out: Minimum Inhibitory Concentration, Mycoplasma pulmonis
Description: as §1, §2

Mycoplasma hyorhinis = test: Antimicrobial test, conventional agar plate dilution method, Mycoplasma hyorhinis; settings: for MIC: Mycoplasma, read-out: Minimum Inhibitory Concentration, Mycoplasma hyorhinis
Description: as §1, §2

Compound | MIC (Mycoplasma gallisepticum) | MIC (Mycoplasma pulmonis) | MIC (Mycoplasma hyorhinis) | Minimum Inhibitory Concentration, Mycoplasma gallisepticum (Mycoplasma gallisepticum) | Minimum Inhibitory Concentration, Mycoplasma pulmonis (Mycoplasma pulmonis) | Minimum Inhibitory Concentration, Mycoplasma hyorhinis (Mycoplasma hyorhinis)
O=C1CCCCC1CSC(=S)N1CCCCC1 (stereo not drawn) [Compound No. 9, 2-Oxocyclohexylmethyl 1-piperidinecarbodithioate] | 0.2 µg/mL (≈ 0.737 µM) | 0.39 µg/mL (≈ 1.44 µM) | 0.2 µg/mL (≈ 0.737 µM) | – | – | –
O=C(CCSC(=S)N1CCCCCC1)c1ccccc1 [compound 31, 2-Benzoylethyl 1-hexamethyleneiminecarbodithioate] | 0.2 µg/mL (≈ 0.65 µM) | 0.2 µg/mL (≈ 0.65 µM) | 0.2 µg/mL (≈ 0.65 µM) | – | – | –
CN(C)C(=S)SCC1CCCC1=O (stereo not drawn) [Compound No. 1, 2-Oxocyclopentylmethyl dimethyldithiocarbamate] | 0.05 µg/mL (≈ 0.23 µM) | 0.05 µg/mL (≈ 0.23 µM) | 0.05 µg/mL (≈ 0.23 µM) | – | – | –
CC(=O)CCSC(=S)N1CCOCC1 [compound 91, 2-Acetylethyl 4-morpholinecarbodithioate] | 0.2 µg/mL (≈ 0.857 µM) | 0.2 µg/mL (≈ 0.857 µM) | 0.025 µg/mL (≈ 0.107 µM) | – | – | –
CN(C)C(=S)SCc1cc(C(C)(C)C)c(O)c(C(C)(C)C)c1 [compound 211, 4-Hydroxy-3,5-di-t-butylbenzyl dimethyldithio carbamate] | 0.78 µg/mL (≈ 2.3 µM) | 0.78 µg/mL (≈ 2.3 µM) | 0.39 µg/mL (≈ 1.15 µM) | – | – | –
O=C(CCSC(=S)N1CCCCC1)c1ccccc1 [compound 30, 2-Benzoylethyl 1-piperidinecarbodithioate] | 0.2 µg/mL (≈ 0.682 µM) | 0.2 µg/mL (≈ 0.682 µM) | 0.2 µg/mL (≈ 0.682 µM) | – | – | –
COc1cc(CSC(=S)N2CCCCC2)cc(OC)c1O [compound 229, 4-Hydroxy-3,5-dimethoxybenzyl 1-piperidinecarbodithioate] | 0.39 µg/mL (≈ 1.19 µM) | 0.39 µg/mL (≈ 1.19 µM) | 0.39 µg/mL (≈ 1.19 µM) | – | – | –
CCC(=O)CCSC(=S)N1CCOCC1 [compound 101, 2-Propionylethyl 4-morphonlinecarbodithioate] | 0.1 µg/mL (≈ 0.404 µM) | 0.1 µg/mL (≈ 0.404 µM) | 0.1 µg/mL (≈ 0.404 µM) | – | – | –
O=C(CCSC(=S)N1CCOCC1)c1ccccc1O [compound 42, 2-(o-Hydroxybenzoyl)ethyl 4-morpholinecarbodithioate] | 0.2 µg/mL (≈ 0.642 µM) | 0.2 µg/mL (≈ 0.642 µM) | 0.39 µg/mL (≈ 1.25 µM) | – | – | –
COc1cc(CSC(=S)N2CCOCC2)cc(OC)c1O [compound 230, 4-Hydroxy-3,5-dimethoxybenzyl 4-morpholinecarbodithioate] | 1.56 µg/mL (≈ 4.74 µM) | 1.56 µg/mL (≈ 4.74 µM) | 0.78 µg/mL (≈ 2.37 µM) | – | – | –
CC(C)(C)c1cc(C(SC(=S)N2CCCCC2)c2ccccc2)cc(C(C)(C)C)c1O (stereo not drawn) [compound 225, 4-Hydroxy-3,5-di-t-butyl-α-phenylbenzyl 1-piperidinecarbodithioate] | 0.39 µg/mL (≈ 0.856 µM) | 0.2 µg/mL (≈ 0.439 µM) | 0.39 µg/mL (≈ 0.856 µM) | – | – | –
CCN(CC)C(=S)SCc1oc(CO)cc(=O)c1O [compound 255, 5-Hydroxy-2-hydroxymethyl-4-oxo-4H-pyran-6-ylmethyl diethyldithiocarbamate] | 0.05 µg/mL (≈ 0.165 µM) | 0.1 µg/mL (≈ 0.33 µM) | 0.05 µg/mL (≈ 0.165 µM) | – | – | –
O=C(CCSC(=S)N1CCOCC1)c1ccccc1[N+](=O)[O-] [compound 61, 2-(o-Nitrobenzoyl)ethyl 4-morpholinecarbodithioate] | 0.1 µg/mL (≈ 0.294 µM) | 0.39 µg/mL (≈ 1.15 µM) | 1.56 µg/mL (≈ 4.58 µM) | – | – | –
Cc1cc(CSC(=S)N2CCCC2)cc(C)c1O [compound 187, 4-Hydroxy-3,5-dimethylbenzyl 1-pyrrolidinecarbodithioate] | 0.78 µg/mL (≈ 2.77 µM) | 0.78 µg/mL (≈ 2.77 µM) | 0.78 µg/mL (≈ 2.77 µM) | – | – | –
Cc1ccc(C(=O)CCSC(=S)N(C)C)cc1 [compound 55, 2-(p-Toluoyl)ethyl dimethyldithiocarbamate] | 0.2 µg/mL (≈ 0.748 µM) | 0.39 µg/mL (≈ 1.46 µM) | 0.2 µg/mL (≈ 0.748 µM) | – | – | –
CN(C)C(=S)SCCC(=O)CCc1ccccc1 [compound 123, 2-Hydrocinnamoylethyl dimethyldithiocarbamate] | 0.2 µg/mL (≈ 0.711 µM) | 0.2 µg/mL (≈ 0.711 µM) | 0.2 µg/mL (≈ 0.711 µM) | – | – | –
Cc1ccccc1C(=O)CCSC(=S)N(C)C [compound 57, 2-(o-Toluoyl)ethyl dimethyldithiocarbamate] | 0.1 µg/mL (≈ 0.374 µM) | 0.2 µg/mL (≈ 0.748 µM) | 0.1 µg/mL (≈ 0.374 µM) | – | – | –
Cc1cccc(C(=O)CCSC(=S)N(C)C)c1 [compound 56, 2-(m-Toluoyl)ethyl dimethyldithiocarbamate] | 0.1 µg/mL (≈ 0.374 µM) | 0.1 µg/mL (≈ 0.374 µM) | 0.05 µg/mL (≈ 0.187 µM) | – | – | –
Cc1cc(CSC(=S)N2CCOCC2)cc(C)c1O [compound 194, 4-Hydroxy-3,5-dimethylbenzyl 4-morpholinecarbodithioate] | 1.56 µg/mL (≈ 5.24 µM) | 1.56 µg/mL (≈ 5.24 µM) | 0.78 µg/mL (≈ 2.62 µM) | – | – | –
CC(C)(C)c1cc(CSC(=S)N2CCOCC2)cc(C(C)(C)C)c1O [compound 219, 4-Hydroxy-3,5-di-t-butylbenzyl 4-morpholinecarbodithioate] | 0.2 µg/mL (≈ 0.524 µM) | 0.2 µg/mL (≈ 0.524 µM) | 0.1 µg/mL (≈ 0.262 µM) | – | – | –
CCN(CC)C(=S)SCC1CCCC1=O (stereo not drawn) [Compound No. 2, 2-Oxocyclopentylmethyl diethyldithiocarbamate] | 0.1 µg/mL (≈ 0.407 µM) | 0.1 µg/mL (≈ 0.407 µM) | 0.1 µg/mL (≈ 0.407 µM) | – | – | –
O=C1CCCC1CSC(=S)N1CCOCC1 (stereo not drawn) [compound 3, 2-Oxocyclopentylmethyl 4-morpholinecarbodithioate] | 0.2 µg/mL (≈ 0.771 µM) | 0.1 µg/mL (≈ 0.386 µM) | 0.2 µg/mL (≈ 0.771 µM) | – | – | –

Compound | MIC (Mycoplasma gallisepticum) | MIC (Mycoplasma pulmonis) | MIC (Mycoplasma hyorhinis) | Minimum Inhibitory Concentration, Mycoplasma gallisepticum (Mycoplasma gallisepticum) | Minimum Inhibitory Concentration, Mycoplasma pulmonis (Mycoplasma pulmonis) | Minimum Inhibitory Concentration, Mycoplasma hyorhinis (Mycoplasma hyorhinis)
CC(=O)CCSC(=S)N(C)C1CCCCC1 [compound 81, 2-Acetylethyl cyclohexylmethyldithiocarbamate] | 0.2 µg/mL (≈ 0.771 µM) | 0.2 µg/mL (≈ 0.771 µM) | 0.2 µg/mL (≈ 0.771 µM) | – | – | –
CC1=C(C=CC(=O)CCSC(=S)N(C)C)C(C)(C)CCC1 [compound 146, 2-[β-(2,6,6-Trimethylcyclohexene-1-yl)acryloyl]-ethyl dimethyldithiocarbamate] | 0.39 µg/mL (≈ 1.2 µM) | 0.39 µg/mL (≈ 1.2 µM) | 0.39 µg/mL (≈ 1.2 µM) | – | – | –
O=c1cc(CO)oc(CSC(=S)N2CCCC2)c1O [compound 258, 5-Hydroxy-2-hydroxymethyl-4-oxo-4H-pyran-6-ylmethyl-1-pyrrolidinecarbodithioate] | 0.78 µg/mL (≈ 2.59 µM) | 0.78 µg/mL (≈ 2.59 µM) | 0.39 µg/mL (≈ 1.29 µM) | – | – | –
CCN(CC)C(=S)SCc1cc(C)cc(C)c1O [compound 199, 2-Hydroxy-3,5-dimethylbenzyl diethyldithiocarbamate] | – | – | – | 0.39 µg/mL | 0.39 µg/mL | 0.39 µg/mL
CN1CCN(C(=S)SCc2oc(CO)cc(=O)c2O)CC1 [compound 263, 5-Hydroxy-2-hydroxymethyl-4-oxo-4H-pyran-6-ylmethyl-4-methyl-1-piperazinecarbodithioate] | 1.56 µg/mL (≈ 4.72 µM) | 3.13 µg/mL (≈ 9.47 µM) | 3.13 µg/mL (≈ 9.47 µM) | – | – | –
CCN(CC)C(=S)SCc1cc(CO)cc(OC)c1O [compound 242, 2-Hydroxy-3-methoxy-5-hydroxymethylbenzyl diethyldithiocarbamate] | 0.1 µg/mL (≈ 0.317 µM) | 0.1 µg/mL (≈ 0.317 µM) | 0.1 µg/mL (≈ 0.317 µM) | – | – | –
CN(C)C(=S)SCc1oc(CO)cc(=O)c1O [compound 254, 5-Hydroxy-2-hydroxymethyl-4-oxo-4H-pyran-6-ylmethyl dimethyldithiocarbamate] | 0.39 µg/mL (≈ 1.42 µM) | 0.39 µg/mL (≈ 1.42 µM) | 0.39 µg/mL (≈ 1.42 µM) | – | – | –
CCN(CC)C(=S)SCc1cc(C)cc(C)c1O [compound 198, 2-Hydroxy-3,5-dimethylbenzyl diethyldithiocarbamate] | 0.39 µg/mL (≈ 1.38 µM) | 0.39 µg/mL (≈ 1.38 µM) | 0.2 µg/mL (≈ 0.706 µM) | – | – | –
CC(=O)CCSC(=S)N1CCCCCC1 [compound 89, 2-Acetylethyl 1-hexamethyleneiminecarbodithioate] | 0.2 µg/mL (≈ 0.815 µM) | 0.1 µg/mL (≈ 0.407 µM) | 0.1 µg/mL (≈ 0.407 µM) | – | – | –
Oc1c(Cl)cc(CSC(=S)N2CCCCC2)cc1Cl [compound 234, 4-Hydroxy-3,5-dichlorobenzyl 1-piperidinecarbodithioate] | 3.13 µg/mL (≈ 9.31 µM) | 3.13 µg/mL (≈ 9.31 µM) | 1.56 µg/mL (≈ 4.64 µM) | – | – | –
Cc1cc(CSC(=S)N2CCCCC2)cc(C(C)(C)C)c1O [compound 207, 4-Hydroxy-3-t-butyl-5-methylbenzyl 1-piperidinecarbodithioate] | 0.1 µg/mL (≈ 0.296 µM) | 0.1 µg/mL (≈ 0.296 µM) | 0.1 µg/mL (≈ 0.296 µM) | – | – | –
CC(=O)C(CSC(=S)N(C)C)Cc1ccccc1 (stereo not drawn) [compound 156, 2-Acetyl-2-benzylethyl dimethyldithiocarbamate] | 0.2 µg/mL (≈ 0.711 µM) | 0.2 µg/mL (≈ 0.711 µM) | 0.2 µg/mL (≈ 0.711 µM) | – | – | –
O=c1cc(CO)oc(CSC(=S)N2CCOCC2)c1O [compound 262, 5-Hydroxy-2-hydroxymethyl-4-oxo-4H-pyran-6-ylmethyl-4-morpholinecarbodithioate] | 0.2 µg/mL (≈ 0.63 µM) | 0.78 µg/mL (≈ 2.46 µM) | 0.78 µg/mL (≈ 2.46 µM) | – | – | –
CC(C)C(=O)CCSC(=S)N(C)C [compound 104, 2-Isobutyrylethyl dimethyldithiocarbamate] | 0.2 µg/mL (≈ 0.912 µM) | 0.2 µg/mL (≈ 0.912 µM) | 0.2 µg/mL (≈ 0.912 µM) | – | – | –
CCCCN(C)C(=S)SCC1CCCCC1=O (stereo not drawn) [compound 7, 2-Oxocyclohexylmethyl n-butylmethyldithiocarbamate] | 0.2 µg/mL (≈ 0.731 µM) | 0.2 µg/mL (≈ 0.731 µM) | 0.2 µg/mL (≈ 0.731 µM) | – | – | –
CN(C)C(=S)SCCC(=O)C=Cc1ccccc1 [compound 134, 2-Cinnamoylethyl dimethyldithiocarbamate] | 0.2 µg/mL (≈ 0.716 µM) | 0.2 µg/mL (≈ 0.716 µM) | 0.2 µg/mL (≈ 0.716 µM) | – | – | –
Cc1cc(CSC(=S)N2CCCCC2)cc(C)c1O [compound 192, 4-Hydroxy-3,5-dimethylbenzyl 1-piperidinecarbodithioate] | 0.39 µg/mL (≈ 1.32 µM) | 0.39 µg/mL (≈ 1.32 µM) | 0.1 µg/mL (≈ 0.338 µM) | – | – | –
CN(C)C(=S)SCCC(=O)C(C)(C)C [compound 108, 2-Pivaroylethyl dimethyldithiocarbamate] | 0.2 µg/mL (≈ 0.857 µM) | 0.2 µg/mL (≈ 0.857 µM) | 0.2 µg/mL (≈ 0.857 µM) | – | – | –
CC(=O)C(CSC(=S)N(C)C)c1ccccc1 (stereo not drawn) [compound 164, 2-Acetyl-2-phenylethyl dimethyldithiocarbamate] | 0.1 µg/mL (≈ 0.374 µM) | 0.1 µg/mL (≈ 0.374 µM) | 0.1 µg/mL (≈ 0.374 µM) | – | – | –
CC(=O)CCSC(=S)N1CCN(C)CC1 [Compound No. 92, 2-Acetylethyl 4-methyl-1-piperazinecarbodithioate] | 0.2 µg/mL (≈ 0.812 µM) | 0.2 µg/mL (≈ 0.812 µM) | 0.025 µg/mL (≈ 0.101 µM) | – | – | –
CCN(CC)C(=S)SCCC(=O)C=Cc1ccccc1 [compound 135, 2-Cinnamoylethyl diethyldithiocarbamate] | 0.2 µg/mL (≈ 0.65 µM) | 0.2 µg/mL (≈ 0.65 µM) | 0.2 µg/mL (≈ 0.65 µM) | – | – | –

Source: patent US4076814A, “Preventive and curative compositions against mycoplasmosis” (Sankyo Company Limited, priority 1975, dated 1978)
